According to paper PMC7217150, “Synthesis, Modification, and Biological Evaluation of a Library of Novel Water‐Soluble Thiopyridone‐Based Organometallic Complexes and Their Unexpected (Biological) Behavior” (Chemistry (Weinheim an Der Bergstrasse, Germany), 2020):
Where two headings read alike, the source gives them in different places.

Tests used:
A549 [1] = assay: MTT cytotoxicity assay, monolayer culture; assay type: cell-based, human; details: exposure time 96 h, means ± SDs
CH1/PA‐1 [2] = assay: MTT cytotoxicity assay, monolayer culture; assay type: cell-based, human; details: CH1/PA‐1, MTT assay, exposure time 96 h, means ± SDs
SW480 [3] = assay: MTT cytotoxicity assay, monolayer culture; assay type: cell-based, human; details: SW480, MTT assay, exposure time 96 h, means ± SDs
[4] = UV/Vis stability in aqueous solution; assay type: physicochemical; details: in PBS, rank among osmium complexes
Method: In order to investigate complex stabilities, UV/Vis spectrophotometry was conducted for all complexes. […] This process is fastest for complex 4 b* followed by complexes 4 a* and finally 4 c* in PBS. Decomposition of the osmium compounds was slightly slower in pure water (Figure 5).
UV/Vis spectra were recorded using a Hewlett Packard 8452A diode‐array spectrophotometer between 200–800 nm. The path length (l) was either 1 or 2 cm. UV/Vis spectra were recorded to confirm complex stability in aqueous systems and over a pH range 5.8–7.9.

[5] = pH 5.8
Method: In order to investigate a possible pH influence on complex stability and to gather further insights into the instability of the osmium complexes, UHPLC kinetic measurements were carried out at pH values of 5.8, 6.2, 6.7, 7.2 and 7.9 in phosphate buffered solution via UHPLC. […] Due to pump pressure fluctuations the retention times tended to shift ±0.18 min.
Stock solutions containing the desired complex in DMSO (5 mM) were diluted with phosphate buffer to a final concentration of 50 μM compound in 1 % DMSO/20 mM buffer and directly analyzed via gradient UHPLC runs over 24 h. Phosphate buffers at pH 5.8, 6.2, 6.7, 7.2 and 7.9 were employed to ensure a constant pH value. The instrument was set to 0.6 mL min^−1 flow rate, 37 °C sampler temperature, 25 °C column compartment, 225 nm detection wavelength, 95 % MeOH in MiliQ water +0.1 % formic acid over 7.0 min.

[6] = 1H NMR kinetics in D2O/1 % [D6]DMSO, repeated 1:1 dilution
Method: In order to elucidate the fate of complex 4 c* and a possible concentration effect on its stability, additional NMR and MS experiments were carried out. […] Consequently, the sample was diluted 1:1 (3 mg mL^−1) and kinetics were measured over 24 h a second time. This step was repeated six times in total (after 24, 48, 72, 96, 168, and 192 h; resulting in a final concentration of 176 μM). […] It was impossible to measure 2D NMR sets throughout the experiment, due to the low sample concentration.

[7] = tested on: human cancer cell lines CH1/PA‐1, SW480, A549; details: tested cancer cell lines
Method: Cytotoxicity of the compounds in monolayer cultures was determined by the colorimetric MTT assay (MTT=3‐(4,5‐dimethyl‐2‐thiazolyl)‐2,5‐diphenyl‐2H‐tetrazolium bromide). 1×10^3 CH1/PA‐1, 2×10^3 SW480 and 3×10^3 A549 cells were seeded in 100 μL supplemented MEM per well into 96‐well flat‐bottom microculture plates. […] After 96 h, the drug‐containing medium was replaced with 100 μL of RPMI 1640/MTT mixture [6 parts of RPMI 1640 medium (supplemented with 10 % heat‐inactivated fetal bovine serum and 4 mM L‐glutamine), 1 part of MTT solution in phosphate‐buffered saline (5 mg mL^−1)]. After incubation for 4 h, the mixture was replaced with 150 μL DMSO per well to dissolve the formazan product formed by viable cells. Optical densities at 550 nm (and at a reference wavelength of 690 nm) were measured with a microplate reader (ELx808, Bio‐Tek).

[8] = tested on: autochthonous colon cancer; set-up: method as in earlier work; details: rat model, well tolerable dose, cited from earlier work
A549 [9] = details: A549, MTT assay, 96 h; cited from earlier work
SW480 [10] = details: SW480, MTT assay, 96 h; cited from earlier work
CH1/PA‐1 [11] = details: CH1/PA‐1, MTT assay, 96 h; cited from earlier work
[12] = tested on: human cancer cell lines CH1/PA‐1, SW480, A549; set-up: method as in PMID 26365319; details: cited from earlier work

With `Cc1c([O-])c(=S)ccn1-c1ccccc1.Cc1ccc(C(C)C)cc1.[Cl-].[Os+2]` [Compound 4 b, Chlorido[2‐methyl‐3‐(oxo‐κO)‐1‐phenylpyridine‐4(1H)‐thionato‐κS](η^6‐p‐cymene)osmium(II)] the IC50 (A549 [1]) was 2.2 ± 1.1 µM, the IC50 (CH1/PA‐1 [2]) was 1.13 ± 0.03 µM and the IC50 (SW480 [3]) was 5.8 ± 0.3 µM. For the same compound, the “decomposition speed by UV/Vis” value [4] was “fastest”.
`Cc1c([O-])c(=S)ccn1Cc1ccccc1.Cc1ccc(C(C)C)cc1.[Cl-].[Os+2]` [Compound 4 c, Chlorido[1‐benzyl‐2‐methyl‐3‐(oxo‐κO)‐pyridine‐4(1H)‐thionato‐κS](η^6‐p‐cymene)osmium(II)] showed an IC50 (A549 [1]) of 2.2 ± 1.2 µM, an IC50 (CH1/PA‐1 [2]) of 1.3 ± 0.2 µM and an IC50 (SW480 [3]) of 5.6 ± 0.7 µM. The “stability by UHPLC” value [5] was “stable over 24 h”, the “dilution at which formation of a second species became apparent” value [6] was 375 µg/mL and the “IC50 values, in words” value [7] was “low micromolar range”.
In the case of `[Cl-].[Cl-].[Cl-].[Cl-].[Ru+3].c1ccc2[nH][nH+]cc2c1.c1ccc2[nH]ncc2c1.c1ccc2[nH]ncc2c1` [KP1019, indazolium trans‐[tetrachlorido‐bis(1H‐indazole)ruthenate(III)]], the “reduction of tumor volume” value ([8]; autochthonous colon cancer) is listed as “up to 95%” and the weight loss [8] is listed as “no more than 6%”.
For `N.N.[Cl][Pt][Cl]` [Cisplatin], the IC50 (A549 [9]) is given as 1.3 ± 0.4 µM, the IC50 (SW480 [10]) is given as 3.5 ± 0.3 µM and the IC50 (CH1/PA‐1 [11]) is given as 0.16 ± 0.03 µM. The “activity in CH1/PA‐1 cells relative to SW480 cells” value [12] was “up to 22 times”.
In the case of `[Cl][Ru-]([Cl])([Cl])[Cl].[Na+].c1ccc2[nH]ncc2c1.c1ccc2[nH]ncc2c1` [BOLD‐100], the IC50 (A549 [9]) is listed as 156 ± 11 µM, the IC50 (SW480 [10]) is listed as 62 ± 9 µM and the IC50 (CH1/PA‐1 [11]) is listed as 50 ± 6 µM.
